The record followed here is patent US11970731B2, “Enhancement of nucleic acid polymerization by aromatic compounds” (priority 2018, dated 2024).

For test [1], the target named is T1, C4760 DNA polymerase (a variant of DPO4) (Saccharolobus solfataricus, UniProt Q97W02, A155G/A42V/D156R/D292Y/D294N/E291S/E324K/E325K/E327K/E63R/E79L/G187P/G299W/I153V/I189F/I248T/I295S/K152A/K317Q/K321Q/K56Y/K78D/L293W/M76W/N188Y/P184Q/Q82W/Q83G/R300S/S297Y/S86E/T290K/T301W/V289W/V296Q).
T1 construct: made in house
In words: Primer extension assays using a 411mer amplicon template. It counts as biochemical, Sulfolobus solfataricus. To be noted: comparator compound 14 (lane 1). Here is the method: PEM activity of compound 15 was tested in primer extension assays using a 411mer amplicon template. Primer extension reactions included the following reagents: 50 mM TrisCl, 200 mM NH4OAc, 20% PEG8K, 5% NMS, 3 nmol PP-60.20, 2 mM MnCl2, 2 μg Kod single-strand binding protein (SSB), 1 M urea, 250 pmol each XNTP, 1 pmol template, 1 pmol oligonucleotide primer, 1.2 μg purified recombinant C4760 DNA polymerase (a variant of DPO4, see SEQ ID NO:2), and 2 (lane 2) or 3 (lane 3) mM PEM. 10 μL primer extension reactions were run for 20 minutes at 37° C. and reaction products were analyzed by gel electrophoresis. A representative gel showing primer extension products is presented in FIG. 12 (the position of a 277mer is indicated by the arrow). […] Remarkably, the polymerase is completely dependent upon the addition of PEM to the reaction in order to be capable of synthesizing these lengthy Xpandomer products. Even longer extension products may be obtained by optimizing various reaction parameters, e.g., extension time and/or concentrations of various additives.
PEM activity of compound 19, was tested in primer extension assays using the 411 mer amplicon template. […] 10 μL primer extension reactions were run for 30 minutes at 37° C. and reaction products were analyzed by gel electrophoresis. […]

Test [2] deals with DNA polymerase. Put plainly: Screen of PEMs for enhancement of XNTP polymerization (primer extension, gel electrophoresis). In kind it is biochemical. The settings on record: FIG. 4 gel; 45 mer template; without PEM additive up to only around 14 XNTPs. As to the method: A representative primer extension reaction may include the following reagents: 2 pmol primer, 2.2 pmol 45 mer oligonucleotide template, 50 pmol of each XNTP (XATP, XCTP, XGTP, and XTTP), 50 mM Tris HCl, pH 6.79, 200 mM NaCl, 20% PEG, 5% NMS, 0.5 nmol polyphosphate 60.19, 0.3 mM MnCl2, and 0.6 μg of purified recombinant DNA polymerase protein. Reactions may be run for 1 hr at 23° C. Reaction products (i.e., constrained Xpandomers) are treated to cleave the phosphoramidate bonds, thereby generating linearized Xpandomers. Reaction products may be analyzed using gel electrophoresis on 4-12% acrylamide gels to resolve and visualize Xpandomer products of different lengths. For the PEM screen described above, PEMs were typically tested in the micro to millimolar range.
Again, this PEM activity is specific for compound 2, as other unrelated aromatic compounds had no effect (lanes 2-7).

In test [3] the test system is DNA polymerase. In words: Sequencing by Expansion (SBX) of primer extension products, nanopore sequence reads aligned to template. It counts as biochemical. Here is the method:
To investigate the accuracy of PEM-dependent enhancement of XNTP polymerization, primer extension products were sequenced using the SBX protocol. Briefly, the constrained Xpandomer products of XNTP polymerization are cleaved to generate linearized Xpandomers. This is accomplished by first quenching the extension reaction with a solution containing 100 mM EDTA, 2 mM THPTA, and 2% Tween-20. Then the sample is subjected to amine modification with a solution of 1 M NaHCO3 and 1 M succinic anhydride in DMF. Cleavage of the phosphoramidate bonds is carried out with 37% HCl and linearized Xpandomers are purified with QIAquick columns (QIAGEN, Inc.).
For sequencing, protein nanopores are prepared by inserting α-hemolysin into a DPhPE/hexadecane bilayer member in buffer B1, containing 2 M NH4Cl and 100 mM HEPES, pH 7.4. The cis well is perfused with buffer B2, containing 0.4 M NH4Cl, 0.6 M GuCl, and 100 mM HEPES, pH 7.4. The Xpandomer sample is heated to 70° C. for 2 minutes, cooled completely, then a 2 μL sample is added to the cis well. A voltage pulse of 90 mV/390 mV/10 μs is then applied and data is acquired via Labview acquisition software.
Sequence data is analyzed by histogram display of the population of sequence reads from a single SBX reaction. […] Representative histograms of SBX sequencing of a 45mer template are presented in FIG. 6A (no additive control) and FIG. 6B (SBX in the presence of PEM compound 1).

The target in a further test is T2, C4552 DNA polymerase (Saccharolobus solfataricus, UniProt Q97W02, A155G/A42V/D156R/D292Y/D294N/E291S/E324K/E325K/E327K/E79L/G187P/G299W/I153V/I189F/I248T/I295S/K152A/K317Q/K321Q/K56Y/K78D/L293W/M76W/N188Y/P184Q/Q82W/Q83G/R300S/S297Y/S86E/T290K/T301W/V289W/V296Q).
T2 construct: made in house
Put plainly: Primer extension assays using three 100mer templates derived from HIV1, 2 and 3 genomes. In kind it is biochemical, Sulfolobus solfataricus. To be noted: 0.5 mM PEM; HIV1, HIV2, HIV3 100mer templates; 30 minutes at 23° C.; FIG. 9. As to the method:
PEM activity of compounds 9-11 was tested in primer extension assays using three 100mer templates, derived from the HIV1, 2, and 3 genomes. Primer extension reactions included the following reagents: 75 mM TrisCl, pH 8.44, 175 mM NH4OAc, 20% PEG8K, 5% NMS, 0.8 nmol PP-60.20, 0.6 mM MnCl2, 2.3 μg Tth single-strand binding protein (SSB), 0.5 M or 1 M urea, 200 pmol each XNTP, 1.1 pmol template, 1 pmol oligonucleotide primer, 1.2 μg purified recombinant C4552 DNA polymerase, and 0.5 mM PEM. 10 μL primer extension reactions were run for 30 minutes at 23° C. and reaction products were analyzed by gel electrophoresis.

Test [4] addresses T3, C4552 (variant of DPO4 DNA polymerase) (Saccharolobus solfataricus, UniProt Q97W02, A155G/A42V/D156R/D292Y/D294N/E291S/E324K/E325K/E327K/E79L/G187P/G299W/I153V/I189F/I248T/I295S/K152A/K317Q/K321Q/K56Y/K78D/L293W/M76W/N188Y/P184Q/Q82W/Q83G/R300S/S297Y/S86E/T290K/T301W/V289W/V296Q).
T3 construct: made in house
In words: XNTP polymerization reactions on longer templates (88, 127, 227, 277 nucleotides). In kind it is biochemical, Sulfolobus solfataricus. To be noted: 1 mM compound; templates of 88, 127, 227 and 277 nucleotides; 3 or 4 nmol PP-60.20; 1-2 hr at 23° C.; FIG. 8. Here is the method:
Following the success of accurately replicating templates of up to 80 nucleotides in length into Xpandomers, XNTP polymerization reactions were conducted using four longer templates, consisting of 88, 127, 227, and 277 nucleotides in length. A variant of DPO4 DNA polymerase, referred to as C4552 (SEQ ID NO:1), was used in these polymerization reactions and reaction conditions were optimized for C4552 activity in the presence of PEM compound 1. Other suitable DPO4 polymerase variants include, but are not limited to, those of SEQ ID NO:2, SEQ ID NO:3, SEQ ID NO:4, and SEQ ID NO:5. In addition to 1 mM compound 1, reaction additives included 1 mM urea and 2.75 μg single-strand binding protein (Eco SSB). Extension reactions were carried out with 0.85 pmol template, 0.5 pmol oligonucleotide primer, and 1 nmol each XNTP in a final volume of 10 μL. Reactions were run in buffer composed of 50 mM TrisCl, pH 8.84, 200 mM NH4OAc, and 20% PEG8K supplemented with 5% NMS, polyphosphate PP-60.20 in amounts of 3 or 4 nmol, and 2 mM MnCl2. 1.2 μg purified recombinant DNA polymerase protein was used in each extension reaction and reactions were run for 1-2 hr at 23° C. […] Lanes 1-5 and 6-10 represent identical extension reactions with the exception of the amount of PP-60.20 additive, which was 3 nmol in lanes 1-5 and 4 nmol in lanes 6-10.

T1 sequence (Q97W02 other isoform, or with tags, fused parts or gaps with the stated changes): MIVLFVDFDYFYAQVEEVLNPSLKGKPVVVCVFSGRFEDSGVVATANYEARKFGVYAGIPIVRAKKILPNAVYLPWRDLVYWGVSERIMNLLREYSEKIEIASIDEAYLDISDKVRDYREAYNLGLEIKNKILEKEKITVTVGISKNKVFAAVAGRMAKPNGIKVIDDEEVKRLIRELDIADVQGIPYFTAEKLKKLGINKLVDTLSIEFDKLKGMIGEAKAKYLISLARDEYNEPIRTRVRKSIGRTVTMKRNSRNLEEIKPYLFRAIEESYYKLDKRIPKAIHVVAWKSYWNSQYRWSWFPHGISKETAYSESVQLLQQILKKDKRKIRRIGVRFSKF
T3 sequence (Q97W02 other isoform, or with tags, fused parts or gaps with the stated changes): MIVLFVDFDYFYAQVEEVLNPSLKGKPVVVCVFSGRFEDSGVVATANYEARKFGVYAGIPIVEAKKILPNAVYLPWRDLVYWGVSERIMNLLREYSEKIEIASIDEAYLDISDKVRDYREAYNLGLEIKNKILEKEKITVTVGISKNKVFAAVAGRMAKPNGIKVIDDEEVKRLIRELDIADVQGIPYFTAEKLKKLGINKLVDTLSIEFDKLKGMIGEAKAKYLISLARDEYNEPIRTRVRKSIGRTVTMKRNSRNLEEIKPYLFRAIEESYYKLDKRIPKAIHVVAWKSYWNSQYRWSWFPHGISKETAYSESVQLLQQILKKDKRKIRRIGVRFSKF

Turning to `NC(=O)c1cc(-c2cn(-c3ccc(C(=O)O)c(O)c3)nn2)nc(-c2cn(-c3ccc(C(=O)O)c(O)c3)nn2)c1` [Compound 19, 4,4′-((4-carbamoylpyridine-2,6-diyl)bis(1H-1,2,3-triazole-4,1-diyl))bis(2-hydroxybenzoic acid)], the “PEM activity: polymerization of XNTPs into Xpandomer copies of the 411 mer template” value in test [1] (0.5, 1, or 1.5 mM PEM, 0.5 pmol template, 30 minutes at 37° C., FIG. 14) is listed as “enables polymerization of XNTPs into lengthy Xpandomer copies of the 411 mer template, albeit in a manner less efficient than that of compound 14”.
As for `CCOC(=O)c1cc(-c2cn(-c3ccc(O)c(C(=O)O)c3)nn2)nc(-c2cn(-c3ccc(O)c(C(=O)O)c3)nn2)c1` [Compound 15, 5,5′-((4-(ethoxycarbonyl)pyridine-2,6-diyl)bis(1H-1,2,3-triazole-4,1-diyl))bis(2-hydroxybenzoic acid)], the “PEM activity: polymerization of XNTPs into Xpandomer copies of the 411 mer template” value in test [1] (2 or 3 mM PEM, 1 pmol template, 20 minutes at 37° C., FIG. 12) was “enables polymerization of XNTPs into lengthy Xpandomer copies of the 411 mer template in a manner comparable to that of compound 14”.
In the case of `O=C(O)c1ccc(-n2cc(-c3cccc(-c4cn(-c5ccc(C(=O)O)c(O)c5)nn4)n3)nn2)cc1O` [Compound 1, 4,4′-(pyridine-2,6-diylbis(1H-1,2,3-triazole-4,1-diyl))bis(2-hydroxybenzoic acid)], in the test on DNA polymerase [2], the “DNA polymerase-mediated primer extension with XNTPs (length of extension products)” value was “enables the polymerase to synthesize considerably longer extension products”. Further, the “accuracy of SBX sequence reads” value was “increased the accuracy of the sequence reads across the entire length of the 45 mer template” with DNA polymerase [3] (45mer template, FIG. 6B, without additive reads not accurate past around base 18); “enabled accurate sequence reads completely to the end of each of these longer templates” in the test on DNA polymerase [3] (60 mer template, FIG. 7A); “enabled accurate sequence reads completely to the end of each of these longer templates” with DNA polymerase [3] (80 mer template, FIG. 7B). For the same molecule, the “PEM activity: polymerization of XNTPs into Xpandomer copies of 100 mer templates” value on C4552 DNA polymerase is listed as “enables polymerization of XNTPs into full length Xpandomer copies of the three different 100 mer templates”. For the same molecule, in test [4], the “polymerization of XNTPs into Xpandomer copies of longer templates” value is “generate complete Xpandomer copies of each longer template”.
